Assay results as given in ChEMBL document CHEMBL1139330, “Synthesis and neuropharmacological evaluation of esters of R(-)-N-alkyl-11-hydroxy-2-methoxynoraporphines” (Bioorg Med Chem Lett, 2009).
Calls of active or inactive are those of the source. The rule behind the calls is not given here.

Columns and labels:
[1] = Selectivity ratio of Ki for dopamine D1 receptor to Ki for dopamine D2 receptor in rat forebrain
D(2) dopamine receptor = D(2) dopamine receptor (Rattus norvegicus, UniProt P61169); experiment: Displacement of [3H]nemonapride from dopamine D2 receptor in rat forebrain
D(2) dopamine receptor, sequence (P61169 whole entry): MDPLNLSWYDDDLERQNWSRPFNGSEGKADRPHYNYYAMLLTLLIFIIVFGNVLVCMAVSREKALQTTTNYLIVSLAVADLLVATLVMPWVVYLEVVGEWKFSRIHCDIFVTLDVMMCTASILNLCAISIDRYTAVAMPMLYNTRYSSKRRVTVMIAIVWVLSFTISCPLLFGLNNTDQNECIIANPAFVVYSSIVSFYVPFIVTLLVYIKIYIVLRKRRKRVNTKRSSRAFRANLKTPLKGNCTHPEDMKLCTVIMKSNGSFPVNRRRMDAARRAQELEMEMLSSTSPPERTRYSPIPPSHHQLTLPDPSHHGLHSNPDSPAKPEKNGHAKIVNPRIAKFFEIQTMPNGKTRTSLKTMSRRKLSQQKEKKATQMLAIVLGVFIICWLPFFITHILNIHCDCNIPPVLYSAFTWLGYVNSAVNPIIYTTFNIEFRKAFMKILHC

D(1A) dopamine receptor = D(1A) dopamine receptor (Rattus norvegicus, UniProt P18901); experiment: Displacement of [3H]SCH23390 from dopamine D1 receptor in rat forebrain
D(1A) dopamine receptor, sequence (P18901 whole entry): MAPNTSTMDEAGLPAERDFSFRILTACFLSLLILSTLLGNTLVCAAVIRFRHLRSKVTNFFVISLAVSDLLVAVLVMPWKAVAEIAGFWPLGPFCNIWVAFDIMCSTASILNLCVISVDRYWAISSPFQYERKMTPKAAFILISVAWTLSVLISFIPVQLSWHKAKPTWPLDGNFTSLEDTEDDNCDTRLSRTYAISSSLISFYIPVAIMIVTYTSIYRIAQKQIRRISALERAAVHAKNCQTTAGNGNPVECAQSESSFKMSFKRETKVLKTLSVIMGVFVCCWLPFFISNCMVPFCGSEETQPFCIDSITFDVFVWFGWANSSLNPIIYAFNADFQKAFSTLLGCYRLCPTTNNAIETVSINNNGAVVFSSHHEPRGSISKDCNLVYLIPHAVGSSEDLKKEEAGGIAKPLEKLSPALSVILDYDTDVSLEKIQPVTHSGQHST

Rattus norvegicus [2] = experiment: Induction of locomotor activity in adult rat at 4 umol/kg, ip after 12 to 24 hrs; assay type: functional, organism-based
Rattus norvegicus [3] = experiment: Toxicity in adult rat assessed as induction of sedation at 4 umol/kg, ip after 12 to 20 hrs; assay type: organism-based; conditions: in vivo

| SMILES | ratio [1] | Ki (D(2) dopamine receptor) [nM] | Ki (D(1A) dopamine receptor) [nM] | Activity (Rattus norvegicus [2]) | Activity (Rattus norvegicus [3]) |
| --- | --- | --- | --- | --- | --- |
| COc1cc2c3c(c1)-c1c(cccc1OC(C)=O)C[C@H]3N(C)CC2 | 3 | 165 | 526 |  |  |
| CCCN1CCc2cc(OC)cc3c2[C@H]1Cc1cccc(O)c1-3 | 38 |  |  |  |  |
| CCCN1CCc2cc(OC)cc3c2[C@H]1Cc1cccc(OC(C)=O)c1-3 | > 529 | 18.9 | > 10000 | Active |  |
| CCCCC(=O)Oc1cccc2c1-c1cc(OC)cc3c1[C@@H](C2)N(CCC)CC3 | > 112 | 89 | > 10000 | inactive | Toxic |
| CN1CCc2cccc3c2[C@H]1Cc1ccc(O)c(O)c1-3 [APOMORPHINE] | 532 |  |  |  |  |
| CCCCC(=O)Oc1cccc2c1-c1cccc3c1[C@@H](C2)N(CCC)CC3 | > 58 |  | > 20000 |  |  |
| CCCCC(=O)Oc1cccc2c1-c1cc(OC)cc3c1[C@@H](C2)N(C)CC3 | 8 | 192 | 1480 |  |  |
| CCCN1CCc2cccc3c2[C@H]1Cc1cccc(OC(C)=O)c1-3 | > 138 |  | > 10000 |  |  |
| COc1cc2c3c(c1)-c1c(O)cccc1C[C@H]3N(C)CC2 | 0.2 |  |  |  |  |
